Test results: ChEMBL document CHEMBL1268814, “Synthesis and biological evaluation of bivalent ligands for the cannabinoid 1 receptor” (J Med Chem, 2010)
The source made the active and inactive calls. The calls are words filed in the database; no cut-off is given here.

How the values were obtained:
[1] = target: Cannabinoid receptor 1 (Rattus norvegicus) (UniProt P20272); assay: Antagonist activity at rat brain CB1 receptor assessed as inhibition of [35S]GTPgammaS binding at 10000 nM; assay type: functional
[2] = target: Cannabinoid receptor 1 (Rattus norvegicus, UniProt P20272); assay: Antagonist activity at rat brain CB1 receptor assessed as inhibition of [35S]GTPgammaS binding; assay type: functional
[3] = target: T1, Cannabinoid receptor 1 (Homo sapiens, UniProt P21554); assay: Displacement of [3H]CP55940 from human CB1 receptor expressed in HEK293 cells; assay type: cell-based
[4] = test system: Mus musculus; assay: Inhibition of compound 21-induced antinociception in mouse at 10 mg/kg, ip administered 30 mins before compound-21 dosing by tail flick latency test
[5] = target: T1, Cannabinoid receptor 1; assay: Antagonist activity at human brain CB1 receptor by calcium mobilization assay; assay type: functional; details: read-out: pA2 (converted)
[6] = target: T1, Cannabinoid receptor 1; assay: biochemical; assay type: cell-based, HEK293
[7] = target: T1, Cannabinoid receptor 1; details: CHO
[8] = target: Cannabinoid receptor 2 (Homo sapiens, UniProt P34972); assay: Displacement of [3H]CP55940 from human CB2 receptor expressed in CHOK1 cells; assay type: cell-based, CHO-K1
[9] = target: T1, Cannabinoid receptor 1; assay: Antagonist activity at human brain CB1 receptor assessed as inhibition for [35S]GTPgammaS binding; assay type: functional
[10] = target: T1, Cannabinoid receptor 1; assay: Antagonist activity at human brain CB1 receptor assessed as inhibition for [35S]GTPgammaS binding at 10000 nM; assay type: functional

Chain of Cannabinoid receptor 1 (Rattus norvegicus) (P20272 whole entry): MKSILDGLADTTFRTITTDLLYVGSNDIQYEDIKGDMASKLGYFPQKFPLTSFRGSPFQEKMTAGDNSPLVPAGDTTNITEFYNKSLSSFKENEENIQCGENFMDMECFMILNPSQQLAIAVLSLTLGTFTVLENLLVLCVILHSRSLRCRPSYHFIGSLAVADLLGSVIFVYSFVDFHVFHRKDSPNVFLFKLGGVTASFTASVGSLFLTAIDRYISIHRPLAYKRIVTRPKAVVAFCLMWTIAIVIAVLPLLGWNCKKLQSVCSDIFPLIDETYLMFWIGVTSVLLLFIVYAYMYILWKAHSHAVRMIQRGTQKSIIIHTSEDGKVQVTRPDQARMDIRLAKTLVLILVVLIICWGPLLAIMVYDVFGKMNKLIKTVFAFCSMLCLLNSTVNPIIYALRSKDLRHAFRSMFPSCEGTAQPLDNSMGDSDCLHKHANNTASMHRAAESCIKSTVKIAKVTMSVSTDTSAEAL
Chain of Cannabinoid receptor 1 (Rattus norvegicus, UniProt P20272) (P20272 whole entry): as above
T1 sequence (P21554 whole entry): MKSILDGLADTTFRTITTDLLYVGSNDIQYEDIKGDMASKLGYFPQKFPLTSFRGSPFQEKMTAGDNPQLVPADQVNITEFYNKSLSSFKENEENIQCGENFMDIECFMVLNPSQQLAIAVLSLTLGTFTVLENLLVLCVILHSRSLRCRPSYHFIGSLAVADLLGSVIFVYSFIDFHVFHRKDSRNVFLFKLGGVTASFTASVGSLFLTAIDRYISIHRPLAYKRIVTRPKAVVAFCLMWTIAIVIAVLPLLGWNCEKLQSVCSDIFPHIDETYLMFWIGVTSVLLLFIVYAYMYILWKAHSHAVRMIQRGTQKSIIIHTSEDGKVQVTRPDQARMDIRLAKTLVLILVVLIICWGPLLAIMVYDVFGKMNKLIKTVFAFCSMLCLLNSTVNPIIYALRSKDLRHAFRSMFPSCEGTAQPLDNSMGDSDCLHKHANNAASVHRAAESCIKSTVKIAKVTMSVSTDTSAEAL
Chain of Cannabinoid receptor 2 (P34972 whole entry): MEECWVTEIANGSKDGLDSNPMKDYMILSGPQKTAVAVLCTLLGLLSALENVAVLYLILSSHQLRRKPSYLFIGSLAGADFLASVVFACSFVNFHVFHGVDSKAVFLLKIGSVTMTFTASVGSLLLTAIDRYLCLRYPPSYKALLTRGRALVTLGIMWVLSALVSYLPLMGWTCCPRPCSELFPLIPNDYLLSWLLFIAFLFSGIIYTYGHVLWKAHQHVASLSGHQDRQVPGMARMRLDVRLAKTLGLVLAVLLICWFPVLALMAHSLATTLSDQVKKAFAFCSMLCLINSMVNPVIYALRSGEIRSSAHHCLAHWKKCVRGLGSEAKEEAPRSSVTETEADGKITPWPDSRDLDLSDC

| Compound | Emax [1] [%] | EC50 [2] [nM] | Ki [3] [nM] | inhibition [4] | Kb [5] [nM] | Ki [6] [nM] | Ke [7] | Ki [8] [nM] | EC50 [9] [nM] | Emax [10] [%] |
| --- | --- | --- | --- | --- | --- | --- | --- | --- | --- | --- |
| Cc1c(C(=O)NCCCCCCCNCCCCCCCN)nn(-c2ccc(Cl)cc2Cl)c1-c1ccc(Cl)cc1 | -52.8 | 3280 | 46.7 | inactive | 20.4 | 19.5 | 503 nM | 622 |  |  |
| Cc1c(C(=O)NCCCCCCCCCN(C)CCCCCCCCCNC(=O)c2nn(-c3ccc(Cl)cc3Cl)c(-c3ccc(Cl)cc3)c2C)nn(-c2ccc(Cl)cc2Cl)c1-c1ccc(Cl)cc1 |  | > 10000 | 247 |  | 29.5 | 94.1 | inactive |  | 161 | -23 |
| Cc1c(C(=O)NCCCCCCCCCN(C)CCCCCCCCCN)nn(-c2ccc(Cl)cc2Cl)c1-c1ccc(Cl)cc1 | -67.9 | 3400 | 10 |  | 4.57 | 6.12 | 141 nM | 265 |  |  |
| Cc1c(C(=O)NCCCCCNCCCCCN)nn(-c2ccc(Cl)cc2Cl)c1-c1ccc(Cl)cc1 | -40.7 | 2220 | 349 |  | 759 | 230 | 5400 nM | > 2500 |  |  |
| Cc1c(C(=O)NCCCCCCCNCCCCCCCNC(=O)c2nn(-c3ccc(Cl)cc3Cl)c(-c3ccc(Cl)cc3)c2C)nn(-c2ccc(Cl)cc2Cl)c1-c1ccc(Cl)cc1 | -25 | 1190 | 12.3 | inactive | 8.32 | 4.41 | 567 nM | 553 | 179 | -38.8 |
| Cc1c(C(=O)NCCNCCN)nn(-c2ccc(Cl)cc2Cl)c1-c1ccc(Cl)cc1 | -22.9 | 7240 | 1230 |  |  | 506 | inactive | > 2500 |  |  |
| Cc1c(C(=O)NCCCCCCCCCCCN(C)CCCCCCCCCCCNC(=O)c2nn(-c3ccc(Cl)cc3Cl)c(-c3ccc(Cl)cc3)c2C)nn(-c2ccc(Cl)cc2Cl)c1-c1ccc(Cl)cc1 | 17.3 | 29.3 | 1890 |  | 501 | 1290 | inactive |  | > 25000 |  |
| Cc1c(C(=O)NCCCCCCCCCNCCCCCCCCCN)nn(-c2ccc(Cl)cc2Cl)c1-c1ccc(Cl)cc1 | -65.2 | 2390 | 14 |  | 5.62 | 5.44 | 31.6 nM | 419 |  |  |
| Cc1c(C(=O)NCCCCCCCCCCCN(C)CCCCCCCCCCCN)nn(-c2ccc(Cl)cc2Cl)c1-c1ccc(Cl)cc1 | -49.3 | 8770 | 14.7 |  | 23.4 | 5.51 | 206 nM | 426 |  |  |
| Cc1c(C(=O)NCCCCCCCCCCCNCCCCCCCCCCCN)nn(-c2ccc(Cl)cc2Cl)c1-c1ccc(Cl)cc1 | -29.2 | 3620 | 4.56 |  | 3.16 | 2.3 | 146 nM | 305 |  |  |
| Cc1c(C(=O)NCCCCCN(C)CCCCCN)nn(-c2ccc(Cl)cc2Cl)c1-c1ccc(Cl)cc1 | -53.3 | 3040 | 162 |  | 309 | 88.8 | 2870 nM |  |  |  |
| Cc1c(C(=O)NCCCCCNCCCCCNC(=O)c2nn(-c3ccc(Cl)cc3Cl)c(-c3ccc(Cl)cc3)c2C)nn(-c2ccc(Cl)cc2Cl)c1-c1ccc(Cl)cc1 | -29.6 | > 10000 | 68.1 |  | 29.5 | 30.4 | 476 nM | 451 | 33 | 8.5 |
| Cc1c(C(=O)NCCCCCCCCCCCNCCCCCCCCCCCNC(=O)c2nn(-c3ccc(Cl)cc3Cl)c(-c3ccc(Cl)cc3)c2C)nn(-c2ccc(Cl)cc2Cl)c1-c1ccc(Cl)cc1 | -12.2 | > 10000 | 99.3 |  | 27.5 | 37 | > 10000 nM | > 2500 | > 25000 |  |
| Cc1c(C(=O)NCCCCCN(C)CCCCCNC(=O)c2nn(-c3ccc(Cl)cc3Cl)c(-c3ccc(Cl)cc3)c2C)nn(-c2ccc(Cl)cc2Cl)c1-c1ccc(Cl)cc1 | -3.8 | 1.78 | 38.7 |  | 11 | 6.35 | 108 nM | 1040 | 59.8 | -13.1 |
| Cc1c(C(=O)NCCCNCCCNC(=O)c2nn(-c3ccc(Cl)cc3Cl)c(-c3ccc(Cl)cc3)c2C)nn(-c2ccc(Cl)cc2Cl)c1-c1ccc(Cl)cc1 | -37.2 | 718 | 174 |  | 38.9 | 41.9 | 1300 nM | 496 | 84.2 | -31.9 |
| Cc1c(C(=O)NCCCCCCCN(C)CCCCCCCN)nn(-c2ccc(Cl)cc2Cl)c1-c1ccc(Cl)cc1 | -62 | 4370 | 37.5 | Active | 21.9 | 15.5 | 220 nM | 1930 |  |  |
| Cc1c(C(=O)NCCCNCCCN)nn(-c2ccc(Cl)cc2Cl)c1-c1ccc(Cl)cc1 | -34.8 | > 10000 | > 2500 |  |  | > 2500 | inactive | > 2500 |  |  |
| Cc1c(C(=O)NCCCCCCCCCNCCCCCCCCCNC(=O)c2nn(-c3ccc(Cl)cc3Cl)c(-c3ccc(Cl)cc3)c2C)nn(-c2ccc(Cl)cc2Cl)c1-c1ccc(Cl)cc1 | 10.4 | 1.34 | 54.1 |  | 17.4 | 57.4 | 4160 nM | > 2500 | 27.9 | 6.5 |
| Cc1c(C(=O)NCCCCCCCN(C)CCCCCCCNC(=O)c2nn(-c3ccc(Cl)cc3Cl)c(-c3ccc(Cl)cc3)c2C)nn(-c2ccc(Cl)cc2Cl)c1-c1ccc(Cl)cc1 | -40.8 | 1460 | 17.3 | Active | 4.27 | 27.5 | 478 nM |  | 2240 | -32.7 |
| Cc1c(C(=O)NCCNCCNC(=O)c2nn(-c3ccc(Cl)cc3Cl)c(-c3ccc(Cl)cc3)c2C)nn(-c2ccc(Cl)cc2Cl)c1-c1ccc(Cl)cc1 | -35.9 | > 10000 | 229 |  | 83.2 | 94 | 2700 nM | 1280 | 237 | -25.5 |
